# Assay results reported in patent US10875850B2, “Pesticidally active azetidine sulfones amide isoxazoline derivatives” (SYNGENTA PARTICIPATIONS AG, priority 2016, dated 2020).
# Legend:
# Assay type in all cases: in vivo
# Diabrotica balteata = assay: Example B1: Diabrotica balteata (corn root worm), maize sprouts sprayed; details: 96 h, read-out: effect in at least one of the two categories (mortality or growth inhibition)
# Description: Maize sprouts placed onto an agar layer in 24-well microtiter plates were treated with aqueous test solutions prepared from 10′000 ppm DMSO stock solutions by spraying. After drying, the plates were infested with L2 larvae (6 to 10 per well). The samples were assessed for mortality and growth inhibition in comparison to untreated samples 4 days after infestation. The following compounds gave an effect of at least 80% in at least one of the two categories (mortality or growth inhibition) at an application rate of 200 ppm: A01, A02, A03, A04, A05, A06, A07, A08, A09, A10, A11, A12, A13, A14, A15, A16, A17, A18, A19, A20, A21, A22, A23, A24, A25, A26, A27, A28, B01
# Thrips tabaci [1] = assay: Example B7: Thrips tabaci (onion thrips), feeding/contact activity; details: 144 h
# Description: (§1) Sunflower leaf discs were placed on agar in 24-well microtiter plates and sprayed with aqueous test solutions prepared from 10′000 ppm DMSO stock solutions. After drying the leaf discs were infested with a thrips population of mixed ages. The samples were assessed for mortality 6 days after infestation.
# Euschistus heros = assay: Example B2: Euschistus heros (neotropical brown stink bug), soybean leaves sprayed; details: 120 h, read-out: effect in at least one of the two categories (mortality or growth inhibition)
# Description: Soybean leaves on agar in 24-well microtiter plates were sprayed with aqueous test solutions prepared from 10′000 ppm DMSO stock solutions. After drying the leaves were infested with N2 nymphs. The samples were assessed for mortality and growth inhibition in comparison to untreated samples 5 days after infestation. The following compounds gave an effect of at least 80% in at least one of the two categories (mortality or growth inhibition) at an application rate of 200 ppm: A01, A02, A03, A04, A05, A06, A07, A08, A09, A10, A11, A12, A13, A14, A15, A16, A17, A18, A19, A20, A21, A22, A23, A24, A25, A26, A27, A28, B01
# Spodoptera littoralis [2] = assay: Example B5: Spodoptera littoralis (Egyptian cotton leaf worm), feeding/contact activity; details: 72 h
# Description: Cotton leaf discs were placed onto agar in 24-well microtiter plates and sprayed with aqueous test solutions prepared from 10′000 ppm DMSO stock solutions. After drying the leaf discs were infested with five L1 larvae. The samples were assessed for mortality 3 days after infestation.
# Tetranychus urticae [3] = assay: Example B6: Tetranychus urticae (two-spotted spider mite), feeding/contact activity; details: 192 h, read-out: mortality on mixed population (mobile stages)
# Description: as §1, with “Bean” for “Sunflower”, “discs” for “discs were placed”, “were” for “and”, “mite” for “thrips”, “on mixed population (mobile stages) 8” for “6”
# Myzus persicae [4] = assay: Example B3: Myzus persicae (green peach aphid), intrinsic activity; details: 120 h
# Description: Test compounds prepared from 10′000 ppm DMSO stock solutions were applied by pipette into 24-well microtiter plates and mixed with sucrose solution. The plates were closed with a stretched Parafilm. A plastic stencil with 24 holes was placed onto the plate and infested pea seedlings were placed directly on the Parafilm. The infested plate was closed with a gel blotting paper and another plastic stencil and then turned upside down. The samples were assessed for mortality 5 days after infestation.
# Plutella xylostella [5] = assay: Example B4: Plutella xylostella (diamond back moth), artificial diet; details: 120 h, read-out: effect in at least one of the two categories (mortality or growth inhibition)
# Description: 24-well microtiter plates with artificial diet were treated with aqueous test solutions prepared from 10′000 ppm DMSO stock solutions by pipetting. After drying, the plates were infested with L2 larvae (10 to 15 per well). The samples were assessed for mortality and growth inhibition in comparison to untreated samples 5 days after infestation. The following compounds gave an effect of at least 80% in at least one of the two categories (mortality or growth inhibition) at an application rate of 200 ppm: A01, A02, A03, A04, A05, A06, A07, A08, A09, A10, A11, A12, A13, A14, A15, A16, A17, A18, A19, A20, A21, A22, A23, A24, A25, A26, A27, A28, B01
# Myzus persicae [6] = assay: Example B8: Myzus persicae (green peach aphid), feeding/contact activity; details: 144 h
# Description: Sunflower leaf discs were placed onto agar in a 24-well microtiter plate and sprayed with aqueous test solutions prepared from 10′000 ppm DMSO stock solutions. After drying, the leaf discs were infested with an aphid population of mixed ages. The samples were assessed for mortality 6 days after infestation.
# Spodoptera littoralis [7] = assay: Comparative Example C2: Spodoptera littoralis, feeding/contact activity, various application rates; details: 3 days after infestation
# Description: (§2) Cotton leaf discs were placed onto agar in 24-well microtiter plates and sprayed with aqueous test solutions prepared from 10′000 ppm DMSO stock solutions. After drying the leaf discs were infested with five L1 larvae. The samples were assessed for mortality (%) 3 days after infestation at the various application rates. Example C3: Tetranychus urticae (Two-Spotted Spider Mite): Feeding/Contact Activity Bean leaf discs on agar in 24-well microtiter plates were sprayed with aqueous test solutions prepared from 10′000 ppm DMSO stock solutions. After drying the leaf discs were infested with a mite population of mixed ages. The samples were assessed for mortality on mixed population (%) (mobile stages) 8 days after infestation at the various application rates.
# Thrips tabaci [8] = assay: Comparative Example C4: Thrips tabaci, feeding/contact activity, various application rates; details: 6 days after infestation
# Description: as §1, with “mortality (%)” for “mortality”, “infestation at the various application rates.” for “infestation.”
# Plutella xylostella [9] = assay: Comparative Example C1: Plutella xylostella, feeding/contact activity, various application rates; details: 5 days after infestation
# Description: 24-well microtiter plates with artificial diet were treated with aqueous test solutions prepared from 10′000 ppm DMSO stock solutions by pipetting. After drying, the plates were infested with L2 larvae (10 to 15 per well). The samples were assessed for mortality (%) 5 days after infestation at the various application rates.
# Tetranychus urticae [10] = assay: Comparative Example C3: Tetranychus urticae, feeding/contact activity, various application rates; details: 8 days after infestation
# Description: as §2
smiles,measurement,setting,value
"CCS(=O)(=O)N1CC(NC(=O)c2ccc(C3=NO[C@@](c4cc(Cl)cc(Cl)c4)(C(F)(F)F)C3)cc2C)C1 [Compound A11, 4-[(5S)-5-(3,5-dichlorophenyl)-5-(trifluoromethyl)-4H-isoxazol-3-yl]-N-(1-ethylsulfonylazetidin-3-yl)-2-methyl-benzamide]",percent control (mortality or growth inhibition) at 200 ppm,Diabrotica balteata,≥ 80%
same,mortality at 200 ppm,Thrips tabaci [1],≥ 80%
same,percent control (mortality or growth inhibition) at 200 ppm,Euschistus heros,≥ 80%
same,mortality at 200 ppm,Spodoptera littoralis [2],≥ 80%
same,mortality at 200 ppm,Tetranychus urticae [3],≥ 80%
same,mortality at 12 ppm,Myzus persicae [4],≥ 80%
same,percent control (mortality or growth inhibition) at 200 ppm,Plutella xylostella [5],≥ 80%
"CS(=O)(=O)N1CC(NC(=O)c2ccc(C3=NOC(c4cc(Cl)c(F)c(Cl)c4)(C(F)(F)F)C3)c3c2CCC3)C1 (centres unmarked) [Compound B01, 7-[5-(3,5-dichloro-4-fluoro-phenyl)-5-(trifluoromethyl)-4H-isoxazol-3-yl]-N-(1-methylsulfonylazetidin-3-yl)indane-4-carboxamide]",percent control (mortality or growth inhibition) at 200 ppm,Diabrotica balteata,≥ 80%
same,mortality at 200 ppm,Thrips tabaci [1],≥ 80%
same,percent control (mortality or growth inhibition) at 200 ppm,Euschistus heros,≥ 80%
same,mortality at 200 ppm,Spodoptera littoralis [2],≥ 80%
same,mortality at 200 ppm,Tetranychus urticae [3],≥ 80%
same,mortality at 200 ppm,Myzus persicae [6],≥ 80%
same,percent control (mortality or growth inhibition) at 200 ppm,Plutella xylostella [5],≥ 80%
Cc1cc(C2=NOC(c3cc(Cl)cc(Cl)c3)(C(F)(F)F)C2)ccc1C(=O)NC1CN(S(C)(=O)=O)C1 (centres unmarked) [Compound A02],Spodoptera littoralis larval average mortality (%),Spodoptera littoralis [7]; application rate 0.195 ppm,50%
same,Spodoptera littoralis larval average mortality (%),Spodoptera littoralis [7]; application rate 0.781 ppm,100%
same,Spodoptera littoralis larval average mortality (%),Spodoptera littoralis [7]; application rate 3.12 ppm,100%
same,Spodoptera littoralis larval average mortality (%),Spodoptera littoralis [7]; application rate 12.5 ppm,100%
same,Spodoptera littoralis larval average mortality (%),Spodoptera littoralis [7]; application rate 50 ppm,100%
same,Spodoptera littoralis larval average mortality (%),Spodoptera littoralis [7]; application rate 200 ppm,100%
same,Thrips tabaci mixed population average mortality (%),Thrips tabaci [8]; application rate 0.195 ppm,0%
same,Thrips tabaci mixed population average mortality (%),Thrips tabaci [8]; application rate 0.781 ppm,100%
same,Thrips tabaci mixed population average mortality (%),Thrips tabaci [8]; application rate 3.12 ppm,100%
same,Thrips tabaci mixed population average mortality (%),Thrips tabaci [8]; application rate 12.5 ppm,100%
same,Thrips tabaci mixed population average mortality (%),Thrips tabaci [8]; application rate 50 ppm,100%
same,Thrips tabaci mixed population average mortality (%),Thrips tabaci [8]; application rate 200 ppm,100%
same,Plutella xylostella larval average mortality (%),Plutella xylostella [9]; application rate 0.195 ppm,80%
same,Plutella xylostella larval average mortality (%),Plutella xylostella [9]; application rate 0.781 ppm,100%
same,Plutella xylostella larval average mortality (%),Plutella xylostella [9]; application rate 3.12 ppm,100%
same,Plutella xylostella larval average mortality (%),Plutella xylostella [9]; application rate 12.5 ppm,100%
same,Plutella xylostella larval average mortality (%),Plutella xylostella [9]; application rate 50 ppm,100%
same,Plutella xylostella larval average mortality (%),Plutella xylostella [9]; application rate 200 ppm,100%
same,Tetranychus urticae mixed population average mortality (%),Tetranychus urticae [10]; application rate 0.195 ppm,0%
same,Tetranychus urticae mixed population average mortality (%),Tetranychus urticae [10]; application rate 0.781 ppm,50%
same,Tetranychus urticae mixed population average mortality (%),Tetranychus urticae [10]; application rate 3.12 ppm,100%
same,Tetranychus urticae mixed population average mortality (%),Tetranychus urticae [10]; application rate 12.5 ppm,100%
same,Tetranychus urticae mixed population average mortality (%),Tetranychus urticae [10]; application rate 50 ppm,100%
same,Tetranychus urticae mixed population average mortality (%),Tetranychus urticae [10]; application rate 200 ppm,100%
